Assays:
U87 glioblastoma cells [1] = test: Tumor cell adhesion to ECM proteins (FIG. 7), U87; type: cell-based, human; conditions: U87 on vitronectin and tenascin, 20 μg/ml, 8-hour incubation
Description: (§1) Non tissue culture dishes were incubated 1 hour at 37° C. with vitronectin, tenascin, fibronectin or collagen I (10 μg/ml), then washed with PBS. After the wash, 5×10^5 cells /well were plated and incubated for 16 hours at 37° C. The cultures were then washed and an adhesion buffer containing 20 μg/ml of pentapeptide or control peptide were added and incubated for an additional 2-24 hours. The cultures were then washed twice with adhesion buffer and stained with Crystal violet and the OD 600 determined. The more adherent cells are present, the higher the OD. Data represent adherent cells after 8-hour incubation. U87=glioblastoma and DAOY=medulloblastoma.

[2] = tested on: human brain endothelial cells (HBEC); test: Vitronectin adhesion, HBEC; type: cell-based; conditions: test substance 20 μg/ml
Description: (§2) Adhesion: Assay conditions were as previously described (15). Non-tissue culture treated wells incubated overnight at 4° C. with vitronectin (1-10 μg/ml PBS), washed and blocked for 30 min. with heat denatured 1% BSA in PBS, followed by washing with PBS. Control and test cells, pre-incubated at 37° C. with the test substance (20 μg/ml) in adhesion buffer for 30 min. were plated into wells (5×10^4 cells/well) and incubated for 1 hr at 37° C. After gentle washing of the wells with adhesion buffer, adhering cells were fixed and stained with crystal violet, the dye solubilized in methanol and the OD determined at […].
(§3) To determine if αvβ3 and αvβ5 regulate DAOY, U87MG and HBEC adhesion to vitronecin, the cells were plated in vitronectin-coated wells and allowed to adhere in the presence or absence of either blocking antibodies to αvβ3 (LM-609) and αvβ5 (P1-F6) or the cRGD peptide.

U87MG cells [3] = test: Orthotopic brain tumor model, U87MG cells injected intracerebrally in nu/nu mice
Description: (§14) Tumor cells (10^6/10 μl PBS) were injected intracerebrally at the coordinates mentioned. […] The animals were then sacrificed by CO2 anesthesia, the brains removed and either snap frozen in liquid nitrogen or fixed in buffered formalin, embedded in paraffin and the cut sections stained with Hematoxylin-Eosin.
DAOY and U87MG cells (10^6 cells/mouse) were stereotactically injected into the right frontal cortex of nu/nu mice in order to establish a system that recapitulates the brain microenvironment.
(§15) Additional animals were tested for survival. Survival was measured as the time point in which mice required sacrifice, due to a moribund state. […] N for DAOY and U87MG control is 16 mice each and 32 mice for treated DAOY and 24 for treated U87MG.
Tumors were removed after 2 weeks of treatment, fixed in buffered formalin, embedded in paraffin and 5 μm sections obtained.

DAOY cells [4] = test: Heterotopic (subcutaneous) tumor model, DAOY cells in nude mice
Description: (§16) Subcutaneous tumor growth: For subcutaneous tumor growth, the cells (10^6 mouse) were injected s.c. below the right shoulder pad immediately following intracerebral injection.
(§17) To further investigate this finding, we simultaneously injected the DAOY and U87MG cells intracranially and subcutaneously before initiating treatment with the peptides as outlined under the orthotopic model.

DAOY cells [5] = test: Vitronectin adhesion, DAOY; type: cell-based, human; conditions: test substance 20 μg/ml
Description: as §2, §3

[6] = tested on: M21L αv pos melanoma cells; test: Survival of nude mice with αv-positive melanoma cells implanted into the brain; type: in vivo; conditions: 10^6 cells into forebrain of nude mice
From the text: (§4) Mice were sacrificed when becoming cachectic and the presence of tumor was verified by autopsy.

[7] = tested on: DAOY medulloblastoma cells; test: Apoptosis of cells grown on ECM (FIG. 8), DAOY; type: cell-based, human; conditions: 20 μg/ml, 24 hours
Description: as §1
(§5) Test conditions were as in FIG. 7, except that detached cells and adherent cells were combined after trypsinisation. The cells were then washed, suspended in 50 μl PBS and centrifuged in glass cover slides (cytospin). After fixation with 4% paraformaldehyde, the cells were stained for apoptosis using the Boehringer Apoptosis Kit. Results are expressed in a percentage of apoptotic cells versus total number of cells. Experiment was done after 24 hours of incubation with the peptides.

[8] = tested on: human brain endothelial cells (HBEC); test: Vitronectin migration (Boyden chamber), HBEC; type: cell-based; conditions: test substance 20 μg/ml, 4 hrs
Description: (§6) Migration: Transwell polycarbonate filters (8 μm pore size) were incubated for 30 min. at 37° C. with vitronectin in PBS (1 μg/ml on the upper side and 10 μg on the bottom side), blocked for 30 min. with 1% heat denatured BSA and washed with PBS. Test cells (5×10^5/well) were added in adhesion buffer containing the test substances indicated (20 μg/ml) and incubated for 4 hrs at 37° C. with the lower chamber containing adhesion buffer. Cells in the upper chamber were removed with a cotton swab and cells on the bottom part of the filter were fixed and stained with crystal violet and the number of migrated cells determined by counting.
(§7) To address whether αvβ3 and αvβ5 modulate migration on vitronectin, independent of adhestion, we tested the same cells on vitronectin-coated membranes in Boyden chambers while in the presence of blocking antibodies or cRGD. […] Since LM-609, in the absence of P1-F6, was incapable of blocking adhesion, this anti-migratory effect must be mediated through a distinct pathway which is independent of forces responsible for adhesion.

DAOY cells [9] = test: Orthotopic brain tumor model, DAOY cells injected intracerebrally in nu/nu mice; conditions: for Tumor size (mm) Brain: nu/nu mice, 100 μg/mouse daily i.p. from day 7, 4 weeks total tumor growth
Description: as §14
DAOY and U87MG cells (10^6 cells/mouse) were stereotactically injected into the right frontal cortex of nu/nu mice in order to establish a system that recapitulates the brain microenvironment. […] For each time, point n=5 or 6.
as §15

U87MG cells [10] = test: Vitronectin adhesion, U87MG; type: cell-based, human; conditions: test substance 20 μg/ml
Description: as §2, §3

brain capillary cells = test: Apoptosis of cells grown on ECM (FIG. 8), brain capillary cells; type: cell-based, human; conditions: 20 μg/ml, 24 hours
Description: as §1, §5

[11] = tested on: DAOY human brain tumor cells; test: CAM assay: angiogenesis and growth of DAOY tumors on chick chorioallantoic membrane; type: in vivo; conditions: 100 μg into a CAM vein, 6 days
Description: (§8) CAM assay: Egg supplier and preparation have been described earlier (23). Tumor cells were plated in 50 μl PBS at 4×10^6 cells/egg for DAOY and 3.5×10^6 cells/egg for U87MG. Cells were grown to tumors for 7 days, then harvested under sterile conditions, trimmed to similar sizes and […] onto the CAM of 10-day-old embryos. […] Tumors were photographed in situ after 7 days of growth, then harvested, weighed and fixed in 4% buffered formalin and embedded in paraffin. After serial sectioning, slides were stained with hematoxilin and eosin.
(§9) To assess the effect of αv antagonism on brain tumor associated angiogenesis, DAOY and U87MG human brain tumor cells were grown on chick chorioallantoic membranes (CAMs). The tumors were allowed to grow for 7 days before they were removed and reimplanted onto fresh CAMs. 24 hours after transfer, 100 μg of either the active cRGD peptide or control peptide (cRAD) was injected into a CAM vein. Tumors were grown for an additional 6 days and then weighed and analyzed for vascularization. […] In contrast to control tumors, which increased 80% in weight, αv-antagonist treated tumors decreased 30% in weight (FIG. 1b).
(§10) FIGS. 1a and 1b show the inhibition of angiogenesis (a) and tumor growth on the CAM (b) by an αv-antagonist. Brain tumors grown on CAMs were harvested and cut to similar sizes and placed on fresh CAMs of 10-day-old chicken eggs. The following day, 100 μg of active αv-inhibitor or control peptide were injected into the chicken veins and grown for another 6 days. […] Tumors placed on the CAM were weighed at the beginning and end of the experiment (b). The weight of the tumors treated with the control peptide increased by 80% for both tumor types (left, n=8), whereas it decreased by about 30% when the active peptide was administered (right, n=8).

[12] = tested on: U87MG human brain tumor cells; test: CAM assay: angiogenesis and growth of U87MG tumors on chick chorioallantoic membrane; type: in vivo; conditions: 100 μg into a CAM vein, 6 days
Description: as §8, §9, §10

[13] = tested on: DAOY medulloblastoma cells; test: Tumor cell adhesion to ECM proteins (FIG. 7), DAOY; type: cell-based, human; conditions: DAOY on vitronectin and tenascin, 20 μg/ml, 8-hour incubation
Description: as §1

[14] = tested on: M21L αv neg melanoma cells; test: Survival of nude mice with αv-negative melanoma cells implanted into the brain; type: in vivo; conditions: 10^6 cells into forebrain of nude mice
From the text: as §4

U87MG cells [15] = test: Heterotopic (subcutaneous) tumor model, U87MG cells in nude mice
Description: as §16, §17

DAOY cells [16] = test: Vitronectin migration (Boyden chamber), DAOY; type: cell-based, human; conditions: test substance 20 μg/ml, 4 hrs
Description: as §6, §7

DAOY cells [17] = test: Apoptosis on vitronectin (Annexin V-FITC FACS), DAOY; type: cell-based, human; conditions: 20 μg/ml, 4 hrs
Description: (§11) Apoptosis: Adhesion conditions were as above, except that 12 well plates covered with vitronectin and 5×10^5 cells/well were plated in adhesion buffer. […] Attached cells were trypsinized and combined with the detached cells in the supernatant and then examined for the presence of apoptotic cells using the Apo Alert Annexin V-FITC apoptosis kit (Clontech).
(§12) FIGS. 6a-6d show the integrin profile (a), effect of αv-antagonist on adhesion to (b), migration on (c) and cell viability on vitronectin (d) for brain tumor and brain capillary endothelial cells. Both DAOY and U87MG tumor cells and brain capillary cells express the integrins αvβ3 and αvβ5 (a). […] Cell viability was tested by letting the cells attach to vitronectin for 1 hour, and then exposing them for 4 hours to the control peptide or αv-antagonist (20 μg/ml) (d). Adherent and floating cells were combined and examined by FACS for apoptosis, using FITC labeled anti-annexin V and propidium iodide.
(§13) We have previously shown that pre-incubation of brain tumor or capillary cells with the cRGD peptide, or the combination of anti-αvβ3 and anti-αvβ5 antibodies, prevents cell adhesion to vitronectin. […] Attached cells were combined after trypsinization with floating cells and the number of apoptotic cells was determined by FACS, using anti-annexin V-FITC antibody and propidium iodide (Clontech Apo alert Annexin V-FITC detection apoptosis kit).

U87 glioblastoma cells [18] = test: Apoptosis of cells grown on ECM (FIG. 8), U87; type: cell-based, human; conditions: 20 μg/ml, 24 hours
Description: as §1, §5

primary HBEC = test: Apoptosis on vitronectin (Annexin V-FITC FACS), HBEC; type: cell-based, human; conditions: 20 μg/ml, 4 hrs
Description: as §11, §12, §13

U87MG cells [19] = test: Vitronectin migration (Boyden chamber), U87MG; type: cell-based, human; conditions: test substance 20 μg/ml, 4 hrs
Description: as §6, §7

[20] = tested on: C6 and 9L rat glioma xenografts; conditions: 1 mg/mouse/day; cited from earlier work
[21] = 100 μg/mouse/day from day 3, listed as active pentapeptide

Molecule: CC(C)[C@H]1C(=O)N[C@@H](CCCN=C(N)N)C(=O)NCC(=O)N[C@@H](CC(=O)O)C(=O)N[C@H](Cc2ccccc2)C(=O)N1C [EMD 121974, cyclo(Arg-Gly-Asp-D-Phe-[N-Me]-Val)]
- adhesion to ECM (adherent cells, OD 600) (U87 glioblastoma cells [1]): detached from vitronectin and tenascin
- adhesion to vitronectin [2]: Significant inhibition
- Mouse weight (gr) (U87MG cells [3]; U87MG, 100 μg/mouse daily i.p.): 20 ± 0.71 gr
- mean time to the onset of neurologic symptoms (U87MG cells [3]; U87MG, 100 μg/mouse daily i.p.): no evidence of neurological symptoms at any time
- mouse weight (U87MG cells [3]; U87MG, 100 μg/mouse daily i.p., baseline 21 g): 21 g
- survival (time point at which mice required sacrifice, moribund state) (U87MG cells [3]; U87MG, i.p. 100 μg/mouse/day from day 3): ≥ 15 weeks
- Tumor size (mm) Brain (U87MG cells [3]; U87MG, nu/nu mice, 100 μg/mouse daily i.p. from day 3, 4 weeks total tumor growth, listed as αv-antagonist): no tumor or only scant residual tumor cells
- size of residual tumor foci (U87MG cells [3]; U87MG, treated group): smaller than 1 mm^3
- CD31 positive vessels in tumor sections (immunohistochemistry) (U87MG cells [3]; U87 brain tumors, 100 μg/mouse/day from day 7, 2 weeks of treatment, p<0.005): very few such vessels
- apoptotic (dead) cells in tumor sections (U87MG cells [3]; U87 brain tumors, 100 μg/mouse/day from day 7, 2 weeks of treatment, p<0.02): significantly more dead cells
- average size of subcutaneous tumors (DAOY cells [4]; DAOY injected into brain and subcutis, treatment from day 7, week 4 (FIG. 5)): 18 mm^3
- time to sacrifice necessitated by progressive growth of subcutaneous tumors (DAOY cells [4]; DAOY injected intracranially and subcutaneously): 10 weeks
- inhibition of subcutaneous tumor growth (DAOY cells [4]; DAOY s.c. only, 100 μg/mouse daily i.p. from day 7, after 6 weeks): no inhibition of tumor growth
- Tumor size (mm) Subcutis (DAOY cells [4]; DAOY s.c., 100 μg/mouse daily i.p.): 17 ± 0.84 mm
- adhesion to vitronectin (DAOY cells [5]): Significant inhibition
- Survival ([6]; 100 μg/mouse/day from day 3): 36.5 ± 2.9 days
- Survival [6, 21]: 36 days
- cell survival / apoptotic cells ([7]; DAOY grown on collagen I or fibronectin): did not alter the survival
- cell survival / apoptotic cells ([7]; DAOY grown on vitronectin or tenascin): increased number of dead cells
- migration on vitronectin [8]: significantly inhibited
- Mouse weight (gr) (DAOY cells [9]; 100 μg/mouse daily i.p.): 21 ± 0.89 gr
- mean time to the onset of neurologic symptoms (DAOY cells [9]; 100 μg/mouse daily i.p.): no evidence of neurological symptoms at any time
- mouse weight (DAOY cells [9]; 100 μg/mouse daily i.p., baseline 21 g): 21 g
- survival (time point at which mice required sacrifice, moribund state) (DAOY cells [9]; i.p. 100 μg/mouse/day from day 7): ≥ 24 weeks
- Tumor size (mm) Brain (DAOY cells [9]; listed as active peptide): absence or microscopic residual disease
- Tumor size (mm) Brain (DAOY cells [9]; listed as αv-antagonist): no tumor or only scant residual tumor cells
- size of residual tumor foci (DAOY cells [9]; treated group): smaller than 1 mm^3
- adhesion to vitronectin (U87MG cells [10]): Significant inhibition
- cell survival / apoptotic cells (brain capillary cells; brain capillary cells grown on collagen I or fibronectin): did not alter the survival
- cell survival / apoptotic cells (brain capillary cells; brain capillary cells grown on vitronectin or tenascin): increased number of dead cells
- tumor-associated angiogenesis (stereomicroscope) [11]: significant suppression of angiogenesis
- decrease of tumor weight ([11]; n=8, listed as active peptide): about 30%
- decrease of tumor weight ([11]; n=8, listed as αv-antagonist): 30%
- tumor-associated angiogenesis (stereomicroscope) [12]: significant suppression of angiogenesis
- decrease of tumor weight ([12]; n=8, listed as active peptide): about 30%
- decrease of tumor weight ([12]; n=8, listed as αv-antagonist): 30%
- adhesion to ECM (adherent cells, OD 600) [13]: detached from vitronectin and tenascin
- Survival ([14]; 100 μg/mouse/day from day 3): 15.7 ± 3.8 days
- Survival [14, 21]: 15 days
- time to sacrifice necessitated by progressive growth of subcutaneous tumors (U87MG cells [15]; U87MG injected intracranially and subcutaneously): 10 weeks
- inhibition of subcutaneous tumor growth (U87MG cells [15]; U87MG s.c. only, 100 μg/mouse daily i.p. from day 3, after 6 weeks): no inhibition of tumor growth
- Tumor size (mm) Subcutis (U87MG cells [15]; U87MG s.c., 100 μg/mouse daily i.p.): 19 ± 0.77 mm
- migration on vitronectin (DAOY cells [16]): significantly inhibited
- apoptosis after attachment to vitronectin (DAOY cells [17]): significant apoptosis
- cell survival / apoptotic cells (U87 glioblastoma cells [18]; U87 grown on collagen I or fibronectin): did not alter the survival
- cell survival / apoptotic cells (U87 glioblastoma cells [18]; U87 grown on vitronectin or tenascin): increased number of dead cells
- apoptosis after attachment to vitronectin (primary HBEC): significant apoptosis
- migration on vitronectin (U87MG cells [19]): significantly inhibited

Molecule: Angiostatin
- growth inhibition of intracranial glioma xenografts [20]: considerable growth inhibition

From US6521593B1, “Methods for inhibiting brain tumor growth” (Childrens Hospital Los Angeles, priority 1999, dated 2003)
